Laboratory results reported in PubChem BioAssay AID1963970 (Molecular Pharmacology Branch, DTP, NCI, 2024).

Tested on: 931267-113-T-J1-PDC multicell spheroid viability
Experiment: Anticancer human tumor 931267-113-T-J1-PDC patient-derived colon adenocarcinoma cell line growth inhibition [PI3K]
Details: for IC50: curve of first compound; for viability, T/C: stronger effect = lower value
Summary of the method: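 Stroma-containing spheroids: tumor line, pooled-donor HUVEC, hMSC. Treatments: targeted agents with PI3K inhibitors. Dosing: clinically relevant, half-log spacing, 10 microM ceiling without known Cmax. Read-out: cell viability.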

[1] = second compound 0.0316 µM, first compound 0.000316 µM
[2] = second compound 0.0316 µM, first compound 0.001 µM
[3] = second compound 0.0316 µM, first compound 0.00316 µM
[4] = second compound 0.0316 µM, first compound 0.01 µM
[5] = second compound 0.0316 µM, first compound 0.0316 µM
[6] = second compound 0.0316 µM, first compound 0.1 µM
[7] = second compound 0.1 µM, first compound 0.000316 µM
[8] = second compound 0.1 µM, first compound 0.001 µM
[9] = second compound 0.1 µM, first compound 0.00316 µM
[10] = second compound 0.1 µM, first compound 0.01 µM
[11] = second compound 0.1 µM, first compound 0.0316 µM
[12] = second compound 0.1 µM, first compound 0.1 µM
[13] = second compound 0.316 µM, first compound 0.000316 µM
[14] = second compound 0.316 µM, first compound 0.001 µM
[15] = second compound 0.316 µM, first compound 0.00316 µM
[16] = second compound 0.316 µM, first compound 0.01 µM
[17] = second compound 0.316 µM, first compound 0.0316 µM
[18] = second compound 0.316 µM, first compound 0.1 µM
[19] = second compound 1 µM, first compound 0.000316 µM
[20] = second compound 1 µM, first compound 0.001 µM
[21] = second compound 1 µM, first compound 0.00316 µM
[22] = second compound 1 µM, first compound 0.01 µM
[23] = second compound 1 µM, first compound 0.0316 µM
[24] = second compound 1 µM, first compound 0.1 µM
[25] = second compound 3.16 µM, first compound 0.000316 µM
[26] = second compound 3.16 µM, first compound 0.001 µM
[27] = second compound 3.16 µM, first compound 0.00316 µM
[28] = second compound 3.16 µM, first compound 0.01 µM
[29] = second compound 3.16 µM, first compound 0.0316 µM
[30] = second compound 3.16 µM, first compound 0.1 µM
[31] = second compound 10 µM, first compound 0.000316 µM
[32] = second compound 10 µM, first compound 0.001 µM
[33] = second compound 10 µM, first compound 0.00316 µM
[34] = second compound 10 µM, first compound 0.01 µM
[35] = second compound 10 µM, first compound 0.0316 µM
[36] = second compound 10 µM, first compound 0.1 µM
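Also: viability read 7 days after compound addition.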

In the case of `CC(=O)c1c(C)c2cnc(Nc3ccc(N4CCNCC4)cn3)nc2n(C2CCCC2)c1=O` + CC(Nc1ncnc2nc[nH]c12)c1cc2cccc(Cl)c2c(=O)n1-c1ccccc1, the IC50 (second compound 0.0316 µM) is reported as over 100 nM, the IC50 (second compound 0.1 µM) is reported as over 100 nM and the IC50 (second compound 0.316 µM) is reported as over 100 nM. For the same compound, the IC50 (second compound 1 µM) was over 100 nM, the IC50 (second compound 3.16 µM) was over 100 nM and the IC50 (second compound 10 µM) was over 100 nM. For the same compound, the viability, T/C [1] was 115%, the viability, T/C [2] was 99% and the viability, T/C [3] was 96.5%. For the same compound, the viability, T/C [4] was 101%, the viability, T/C [5] was 120% and the viability, T/C [6] was 114%. The viability, T/C [7] was 106%, the viability, T/C [8] was 104% and the viability, T/C [9] was 110%. The viability, T/C [10] was 99.5%, the viability, T/C [11] was 110% and the viability, T/C [12] was 103%. It also gave a viability, T/C [13] of 109%, a viability, T/C [14] of 105% and a viability, T/C [15] of 98.1%. It also gave a viability, T/C [16] of 111%, a viability, T/C [17] of 108% and a viability, T/C [18] of 94.6%. The viability, T/C [19] was 104%, the viability, T/C [20] was 105% and the viability, T/C [21] was 104%. The viability, T/C [22] was 114%, the viability, T/C [23] was 99% and the viability, T/C [24] was 102%. For the same compound, the viability, T/C [25] was 106%, the viability, T/C [26] was 95.7% and the viability, T/C [27] was 90.7%. For the same compound, the viability, T/C [28] was 98%, the viability, T/C [29] was 103% and the viability, T/C [30] was 96.1%. The viability, T/C [31] was 97.3%, the viability, T/C [32] was 94.9% and the viability, T/C [33] was 98%. For the same compound, the viability, T/C [34] was 93.3%, the viability, T/C [35] was 94.7% and the viability, T/C [36] was 84.3%.
With `CC(C)n1nc(-c2ccc3oc(N)nc3c2)c2c(N)ncnc21` + CC(Nc1ncnc2nc[nH]c12)c1cc2cccc(Cl)c2c(=O)n1-c1ccccc1 the IC50 (second compound 0.0316 µM) was over 100 nM, the IC50 (second compound 0.1 µM) was over 100 nM and the IC50 (second compound 0.316 µM) was over 100 nM. It also gave an IC50 (second compound 1 µM) of over 100 nM, an IC50 (second compound 3.16 µM) of over 100 nM and an IC50 (second compound 10 µM) of over 100 nM. For the same compound, the viability, T/C [1] was 101%, the viability, T/C [2] was 103% and the viability, T/C [3] was 97.8%. For the same compound, the viability, T/C [4] was 88.7%, the viability, T/C [5] was 92.6% and the viability, T/C [6] was 51.7%. It also gave a viability, T/C [7] of 106%, a viability, T/C [8] of 104% and a viability, T/C [9] of 92.7%. The viability, T/C [10] was 89.5%, the viability, T/C [11] was 79.8% and the viability, T/C [12] was 55.8%. For the same compound, the viability, T/C [13] was 113%, the viability, T/C [14] was 105% and the viability, T/C [15] was 93%. For the same compound, the viability, T/C [16] was 94.2%, the viability, T/C [17] was 86.5% and the viability, T/C [18] was 54.1%. For the same compound, the viability, T/C [19] was 95.6%, the viability, T/C [20] was 98% and the viability, T/C [21] was 91%. For the same compound, the viability, T/C [22] was 92.2%, the viability, T/C [23] was 87.5% and the viability, T/C [24] was 57%. It also gave a viability, T/C [25] of 93.8%, a viability, T/C [26] of 95% and a viability, T/C [27] of 88.4%. It also gave a viability, T/C [28] of 88.8%, a viability, T/C [29] of 81.8% and a viability, T/C [30] of 52.5%. It also gave a viability, T/C [31] of 87.5%, a viability, T/C [32] of 83.9% and a viability, T/C [33] of 91.6%. It also gave a viability, T/C [34] of 84.3%, a viability, T/C [35] of 74.8% and a viability, T/C [36] of 58.9%.
